Structures are written as SMILES.

Test system in one data set: not listed separately
The data set can be described thus: Cytotoxicity against human HepG2 cells incubated for 24 hrs by XTT assay. The data set is classed as toxicity, cell-based. Conditions: read-out: LD50.
As for `Cl.NCc1ccc(-c2nc(-c3ccc(Oc4ccc(F)cc4)cc3)no2)cc1`, the CC50 at 24 h came out at 38 µg/mL.

As for `Cl.NCc1ccc(-c2nc(-c3ccc(I)cc3)no2)cc1`, the CC50 at 24 h worked out at 39 µg/mL.

Test system in another data set: not listed separately
Put plainly: Selectivity index, ratio of LD50 for cytotoxicity against human HepG2 cells to IC50 for antibacterial activity against Clostridium difficile ATTC43255 assessed as spore germination inhibition. The data set is classed as toxicity, cell-based. Conditions: read-out: Ratio LD50/IC50.
In the case of `Cl.NCc1ccc(-c2nc(-c3ccc(Oc4ccc(F)cc4)cc3)no2)cc1`, the selectivity ratio worked out at 2.

In the case of `Cl.NCc1ccc(-c2nc(-c3ccc(I)cc3)no2)cc1`, the selectivity ratio came to 3.

The next data set deals with Clostridioides difficile. Put plainly: Antibacterial activity against Clostridium difficile ATTC43255 assessed as spore germination inhibition incubated for 60 mins by spectrometry. It counts as functional, organism-based. Conditions: ATTC43255, 1 h.
`Cl.NCc1ccc(-c2nc(-c3ccc(Oc4ccc(F)cc4)cc3)no2)cc1`: the IC50 (commonly the concentration needed to halve the response being measured) was 45 µM.

As for `Cl.NCc1ccc(-c2nc(-c3ccc(I)cc3)no2)cc1`, the IC50 amounted to 37 µM.

Another data set deals with Clostridioides difficile. Put plainly: Antibacterial activity against Clostridium difficile ATTC43255 incubated for 24 to 48 hrs anaerobically by colony counting method. It counts as functional. Conditions: time 24-48 hrs.
With `Cl.NCc1ccc(-c2nc(-c3ccc(Oc4ccc(F)cc4)cc3)no2)cc1`, inhibition of growth (MIC) required 16 µg/mL.

In the case of `Cl.NCc1ccc(-c2nc(-c3ccc(I)cc3)no2)cc1`, it took 8 µg/mL to inhibit growth (MIC). This MIC is about 2-fold lower than that of the compound before.

The subject of a further data set is Clostridioides difficile. The data set can be described thus: Antibacterial activity against Clostridium difficile ATTC43255 assessed as spore germination inhibition at 45 uM incubated for 60 mins by spectrometry relative to control. The data set is classed as functional. Conditions: ATTC43255, 1 h.
On to `NCc1ccc(-c2nc(-c3ccnc(-c4ccc(C(F)(F)F)cc4)c3)no2)cc1`, for which the inhibition (usually the share of the control response that was lost under treatment) at 45 µM came out at 71%.

In the case of `O=C(O)c1ccc(-c2nc(-c3ccc(OC4CCCC4)cc3)no2)cc1`, the inhibition at 45 µM was less than 10%.

Take `CC(C)Oc1ncc(-c2nc(-c3cccc4c3CCC4NCCC(=O)O)no2)cc1C#N` (stereo unspecified): the inhibition at 45 µM is less than 10%.

As for `CCN(CC)CCc1nc(-c2ccccc2)no1`, the inhibition at 45 µM was less than 10%.

Turning to `O=C1C[C@H](c2nc(-c3ccc(Oc4ccc(C(F)(F)F)cc4)cc3)no2)CN1`, the inhibition at 45 µM was less than 10%.

Regarding `Clc1c[nH]nc1-c1nc(-c2ccc(OC3CCCC3)cc2)no1`, the inhibition at 45 µM was less than 10%.

`c1nc2cc(-c3nc(-c4ccc(OC5CCCC5)cc4)no3)ccc2[nH]1`: the inhibition at 45 µM is less than 10%.

Take `Oc1ccc(-c2nc(-c3ccc(OC4CC4)cc3)no2)cc1`: the inhibition at 45 µM was less than 10%.

Turning to `NCc1ccc(-c2nc(-c3ccc(OC4CCC4)cc3)no2)cc1`, the inhibition at 45 µM came to 24%.

Take `O=Cc1ccc(-c2noc(-c3ccc(O)cc3)n2)cc1`: the inhibition at 45 µM is less than 10%.

Regarding `NCc1ccc(-c2nc(-c3ccc(Oc4ccc(C(F)(F)F)cc4)cn3)no2)cc1`, the inhibition at 45 µM amounted to 24%.

As for `Oc1ccc(-c2nc(-c3ccc(Oc4ccc(C(F)(F)F)cc4)cc3)no2)cc1`, the inhibition at 45 µM amounted to 14%.

`NCc1ccc(-c2nc(-c3ccc(OC(F)(F)F)cc3)no2)cc1`: the inhibition at 45 µM amounted to 33%.

With `CN1CCN(c2ccc(-c3noc(-c4ccc(O)cc4)n3)cc2)CC1`, the inhibition at 45 µM is less than 10%.

`Nc1ccc(-c2nc(-c3ccc(Oc4ccc(C(F)(F)F)cc4)cc3)no2)cc1F`: the inhibition at 45 µM is less than 10%.

As for `COc1ccc(-c2nc(-c3ccc(OC4CCCC4)cc3)no2)cc1`, the inhibition at 45 µM is less than 10%.

As for `CCCCOc1ccc(-c2noc(-c3ccc(CNC(=O)OC(C)(C)C)cc3)n2)cc1`, the inhibition at 45 µM is less than 10%.

In the case of `COc1ccc(-c2noc(-c3ccc(O)cc3)n2)cc1OC`, the inhibition at 45 µM is less than 10%.

In the case of `NCCCCc1nc(-c2ccc(OC3CCCC3)cc2)no1`, the inhibition at 45 µM was less than 10%.

As for `NCc1ccc(-c2nc(-c3ccc(OC4CCCCC4)cc3)no2)cc1`, the inhibition at 45 µM stood at 43%.

As for `Nc1cncc(-c2nc(-c3ccc(Oc4ccc(C(F)(F)F)cc4)cc3)no2)c1`, the inhibition at 45 µM is less than 10%.

`O=[N+]([O-])c1cc(Oc2ccc(C(F)(F)F)cc2)cnc1-c1noc(-c2ccc(O)cc2)n1`: the inhibition at 45 µM was less than 10%.

Take `Oc1ccc(-c2nc(-c3ccc(N4CCOCC4)cc3)no2)cc1`: the inhibition at 45 µM is less than 10%.

For the compound `C[C@@H](N)c1nc(-c2ccc(OC3CCCC3)cc2)no1`, the inhibition at 45 µM is less than 10%.

On to `FC(F)(F)c1ccc(Oc2ccc(-c3noc(-c4n[nH]cc4NC4CCCCC4)n3)cc2)cc1`, for which the inhibition at 45 µM was less than 10%.

Consider `NCc1ccc(-c2nc(-c3ccc(OC4CCCC4)cc3)no2)cc1`, for which the inhibition at 45 µM was 41%.

In the case of `FC(F)(F)c1ccc(Oc2ccc(-c3noc(-c4c[nH]c5ncccc45)n3)cc2)cc1`, the inhibition at 45 µM was less than 10%.

`COc1ccc(-c2noc(-c3ccc(CN)cc3)n2)cc1`: the inhibition at 45 µM was less than 10%.

On to `O=[N+]([O-])c1c[nH]c(-c2nc(-c3ccc(OC4CCCC4)cc3)no2)n1`, for which the inhibition at 45 µM is less than 10%.

On to `O=[N+]([O-])c1ccc(-c2nc(-c3ccc(OC4CCCC4)cc3)no2)cc1`, for which the inhibition at 45 µM is less than 10%.

With `Oc1ccc(-c2nc(-c3ccc(OC4CCC4)cc3)no2)cc1`, the inhibition at 45 µM was less than 10%.

Consider `NCc1ccc(-c2nc(-c3ccc(CN4CCCC4)cc3)no2)cc1`, for which the inhibition at 45 µM is less than 10%.

Turning to `FC(F)(F)c1ccc(Oc2ccc(-c3noc(-c4ccc5[nH]ccc5c4)n3)cc2)cc1`, the inhibition at 45 µM is less than 10%.

On to `Oc1ccc(-c2nc(-c3ccc(Oc4ccc(C(F)(F)F)cc4)nc3)no2)cc1`, for which the inhibition at 45 µM was less than 10%.

As to `NCCCOc1ccc(-c2noc(-c3ccc(O)cc3)n2)cc1`, the inhibition at 45 µM was less than 10%.

With `Oc1ccc(-c2nc(-c3ccc(Oc4cccc(I)c4)cc3)no2)cc1`, the inhibition at 45 µM came out at 37%.

On to `CCOc1ccc(-c2noc(-c3ccc(O)cc3)n2)cc1`, for which the inhibition at 45 µM is less than 10%.

Turning to `Nc1cc(Oc2ccccc2)ccc1-c1noc(-c2ccc(O)cc2)n1`, the inhibition at 45 µM was found to be 17%.

Consider `O=[N+]([O-])c1cn(CCO)c(-c2nc(-c3ccc(OC4CCCC4)cc3)no2)n1`, for which the inhibition at 45 µM was less than 10%.

With `Nc1ccc(-c2noc(-c3ccc(O)cc3)n2)cc1`, the inhibition at 45 µM is less than 10%.

In the case of `Oc1ccc(-c2nc(-c3ccc4oc5ccc(F)cc5c4c3)no2)cc1`, the inhibition at 45 µM was less than 10%.

On to `COc1ccc(-c2nc(-c3ccc(Oc4ccc(C(F)(F)F)cc4)cc3)no2)cc1OC`, for which the inhibition at 45 µM is less than 10%.

With `Oc1ccc(-c2nc(-c3ccc(OC(F)(F)F)cc3)no2)cc1`, the inhibition at 45 µM was less than 10%.

As to `Oc1ccc(-c2nc(-c3ccc(Oc4ccccc4CBr)cc3)no2)cc1`, the inhibition at 45 µM stood at 27%.

Turning to `COC(OC)c1ccc(-c2noc(-c3ccc(O)cc3)n2)cc1`, the inhibition at 45 µM was less than 10%.

Turning to `FC(F)(F)c1ccc(Oc2ccc(-c3noc(-c4ccc(Br)cc4)n3)cc2)cc1`, the inhibition at 45 µM is less than 10%.

For the compound `CC(C)(C)OC(=O)N1CCC(Nc2c[nH]nc2-c2nc(-c3ccc(Oc4ccc(C(F)(F)F)cc4)cc3)no2)CC1`, the inhibition at 45 µM is less than 10%.

With `OCC#Cc1c[nH]nc1-c1nc(-c2ccc(Oc3ccc(C(F)(F)F)cc3)cc2)no1`, the inhibition at 45 µM is less than 10%.

Take `Oc1ccc(-c2nc(-c3ccc(O[C@@H]4CCNC4)cc3)no2)cc1`: the inhibition at 45 µM is less than 10%.

`CCOc1ccc(-c2nc(-c3cccc4c3CCC4NCCO)no2)cc1OCC` (stereo unspecified): the inhibition at 45 µM was less than 10%.

As for `c1cc(-c2noc(-c3ccc4c(c3)CCN4)n2)ccc1OC1CCCC1`, the inhibition at 45 µM is less than 10%.

Take `O=C(Nc1c[nH]nc1-c1nc(-c2ccc(Oc3ccc(C(F)(F)F)cc3)cc2)no1)c1ccccn1`: the inhibition at 45 µM is less than 10%.

For `O=C1C[C@@H](c2nc(-c3ccc(Oc4ccc(C(F)(F)F)cc4)cc3)no2)CN1`, the inhibition at 45 µM is less than 10%.

With `CCCOc1ccc(-c2noc(-c3ccc(O)cc3)n2)cc1`, the inhibition at 45 µM is less than 10%.

Turning to `Cl.NCc1ccc(-c2nc(-c3ccc(Oc4ccc(F)cc4)cc3)no2)cc1`, the inhibition at 45 µM came out at 60%.

As to `CCCCOc1ccc(-c2noc(-c3ccc(CN)cc3)n2)cc1`, the inhibition at 45 µM is 32%.

As for `N[C@H]1CC[C@H](Oc2ccc(-c3noc(-c4ccc(O)cc4)n3)cc2)CC1`, the inhibition at 45 µM is less than 10%.

For the compound `FC(F)(F)c1ccc(Oc2ccc(-c3noc(-c4n[nH]c5ccccc45)n3)cc2)cc1`, the inhibition at 45 µM was less than 10%.

On to `Oc1ccc(-c2nc(-c3ccc(Oc4ccc(C(F)(F)F)cc4)cc3)no2)cc1O`, for which the inhibition at 45 µM was less than 10%.

In the case of `Cl.NCc1ccc(-c2nc(-c3ccc(I)cc3)no2)cc1`, the inhibition at 45 µM was found to be 51%.

Take `O=[N+]([O-])c1c[nH]c(-c2nc(-c3ccc(Oc4ccc(C(F)(F)F)cc4)cc3)no2)c1`: the inhibition at 45 µM was less than 10%.

As to `O=C(O)c1cccc(-c2noc(-c3ccccc3F)n2)c1`, the inhibition at 45 µM was less than 10%.

For the compound `CCCCNc1c[nH]nc1-c1nc(-c2ccc(Oc3ccc(C(F)(F)F)cc3)cc2)no1`, the inhibition at 45 µM was less than 10%.

For the compound `N#Cc1ccc(-c2nc(-c3ccc(OC4CCCC4)cc3)no2)cc1`, the inhibition at 45 µM was less than 10%.

`O=[N+]([O-])c1cc(-c2nc(-c3ccc(Oc4ccc(C(F)(F)F)cc4)cc3)no2)cnc1O`: the inhibition at 45 µM is less than 10%.

As for `NCc1ccc(-c2nc(-c3ccc(OC(F)F)cc3)no2)cc1`, the inhibition at 45 µM is less than 10%.

For `Oc1ccc(-c2nc(-c3ccc(Oc4ccc(I)cc4)cc3)no2)cc1`, the inhibition at 45 µM came to 39%.

Regarding `c1cc2cc(-c3nc(-c4ccc(OC5CCCC5)cc4)no3)ccc2[nH]1`, the inhibition at 45 µM is less than 10%.

For `Oc1ccc(-c2nc(-c3ccc(Oc4ccc(C(F)(F)F)cc4)cc3)no2)cn1`, the inhibition at 45 µM was less than 10%.

On to `Oc1ccc(-c2nc(-c3ccc(OC4CCOC4)cc3)no2)cc1` (stereo unspecified), for which the inhibition at 45 µM is less than 10%.

Consider `Oc1ccc(-c2nc(-c3ccc4oc5ccccc5c4c3)no2)cc1`, for which the inhibition at 45 µM is less than 10%.

`Oc1ccc(-c2noc(-c3ccc(O)cc3)n2)cc1`: the inhibition at 45 µM is less than 10%.

As to `N#Cc1ccc(Oc2ccc(-c3noc(-c4ccc(O)cc4)n3)cc2)cc1`, the inhibition at 45 µM is less than 10%.

`FC(F)(F)c1ccc(Oc2ccc(-c3noc(-c4cn[nH]n4)n3)cc2)cc1`: the inhibition at 45 µM is less than 10%.

On to `CC(C)(C)OC(=O)NCc1ccc(-c2nc(-c3ccc(Oc4ccc(F)c(F)c4)cc3)no2)cc1`, for which the inhibition at 45 µM was less than 10%.

Regarding `NCc1ccc(-c2nc(-c3ccc(O[C@@H]4CCNC4)cc3)no2)cc1`, the inhibition at 45 µM was less than 10%.

Turning to `CC(C)(C)OC(=O)NCc1ccc(-c2nc(-c3ccc(Oc4ccc(C(F)(F)F)cc4)cc3)no2)cc1`, the inhibition at 45 µM is less than 10%.

For the compound `CCC(C)Nc1c[nH]nc1-c1nc(-c2ccc(Oc3ccc(C(F)(F)F)cc3)cc2)no1` (stereo unspecified), the inhibition at 45 µM is less than 10%.

For the compound `FC(F)(F)c1ccc(Oc2ccc(-c3noc(-c4n[nH]cc4I)n3)cc2)cc1`, the inhibition at 45 µM was less than 10%.

As to `NCc1ccc(-c2nc(-c3ccc(Oc4ccc(F)c(F)c4)cc3)no2)cc1`, the inhibition at 45 µM came to 44%.

With `CNCc1ccc(-c2nc(-c3ccc(OC4CCCC4)cc3)no2)cc1`, the inhibition at 45 µM is 37%.

As to `FC(F)(F)c1ccc(Oc2ccc(-c3noc(-c4n[nH]cc4Br)n3)cc2)cc1`, the inhibition at 45 µM was less than 10%.

Regarding `COc1cc(-c2nc(-c3ccc(Oc4ccc(C(F)(F)F)cc4)cc3)no2)ccc1O`, the inhibition at 45 µM was less than 10%.
